Data as given in the supplement of paper PMC10307832.

Assays:
Experiment in all cases: relative viability (nuclei count vs DMSO), 5 days (fraction); higher = more cells survive
[1] = compound: Cn1cc(-c2cnn3c(N)c(Br)c([C@@H]4CCCNC4)nc23)cn1 + COc1cc2c(Oc3ccc(NC(=O)C4(C(=O)Nc5ccc(F)cc5)CC4)cc3F)ccnc2cc1OCCCN1CCOCC1 [Foretinib] (partner 0.25 µM)
In short: (§1)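 Nuclei were stained with Hoechst during a one-step fixation (final 0.05% Triton X-100, 1% formaldehyde, 1 ug/ml Hoechst) carried out 5 days after dosing, then counted on 4× images. The cells, lung cancer lines in 1536-well plates, had been dosed by pin tool the day after seeding with one drug alone or a fixed anchor-drug dose plus five library-drug doses (not always all listed) in √10 steps. Relative viability is the nuclei count in treated wells divided by that in vehicle wells, and each value is the median of duplicate plates.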

[2] = compound: Cn1cc(-c2cnn3c(N)c(Br)c([C@@H]4CCCNC4)nc23)cn1 + Cc1nc(NC(=O)N2CCC[C@H]2C(N)=O)sc1-c1ccnc(C(C)(C)C(F)(F)F)c1 [Alpelisib] (partner 2 µM)
In short: as §1

[3] = compound: Cn1cc(-c2cnn3c(N)c(Br)c([C@@H]4CCCNC4)nc23)cn1 + Nc1nc2[nH]cc(CCc3ccc(C(=O)N[C@@H](CCC(=O)O)C(=O)O)cc3)c2c(=O)[nH]1 [Pemetrexed] (partner 0.2 µM)
In short: as §1

[4] = compound: Cn1cc(-c2cnn3c(N)c(Br)c([C@@H]4CCCNC4)nc23)cn1 + O=C(c1cc(Cc2n[nH]c(=O)c3ccccc23)ccc1F)N1CCN(C(=O)C2CC2)CC1 [Olaparib] (partner 8 µM)
In short: as §1

| Cell Line | relative viability ([1]; first compound 0.05 µM) | relative viability ([1]; first compound 0.1581 µM) | relative viability ([1]; first compound 0.5 µM) | relative viability ([1]; first compound 1.581 µM) | relative viability ([1]; first compound 5 µM) | relative viability ([2]; first compound 0.05 µM) | relative viability ([2]; first compound 0.1581 µM) | relative viability ([2]; first compound 0.5 µM) | relative viability ([2]; first compound 1.581 µM) | relative viability ([2]; first compound 5 µM) | relative viability ([3]; first compound 0.05 µM) | relative viability ([3]; first compound 0.1581 µM) | relative viability ([3]; first compound 0.5 µM) | relative viability ([3]; first compound 1.581 µM) | relative viability ([3]; first compound 5 µM) | relative viability ([4]; first compound 0.05 µM) | relative viability ([4]; first compound 0.1581 µM) | relative viability ([4]; first compound 0.5 µM) | relative viability ([4]; first compound 1.581 µM) | relative viability ([4]; first compound 5 µM) |
| --- | --- | --- | --- | --- | --- | --- | --- | --- | --- | --- | --- | --- | --- | --- | --- | --- | --- | --- | --- | --- |
| UMC-11 | 1 | 0.984 | 0.851 | 0.773 | 0.51 | 1.04 | 1.07 | 0.675 | 0.621 | 0.579 | 0.841 | 0.753 | 0.626 | 0.657 | 0.429 | 0.429 | 0.399 | 0.41 | 0.381 | 0.34 |
| A-427 | 1.05 | 1.11 | 1.01 | 1.09 | 0.712 | 1.11 | 1.05 | 1.15 | 0.977 | 1.01 | 0.938 | 0.99 | 1.03 | 0.837 | 0.46 | 0.819 | 0.761 | 0.742 | 0.704 | 0.561 |
| LCLC-97TM1 | 0.862 | 1 | 0.93 | 0.909 | 0.956 | 0.188 | 0.299 | 0.23 | 0.228 | 0.189 | 0.172 | 0.185 | 0.189 | 0.171 | 0.126 | 0.346 | 0.605 | 0.327 | 0.382 | 0.38 |
| HCC-15 | 1.09 | 1.09 | 1.05 | 0.941 | 1 | 0.981 | 1.01 | 0.863 | 0.782 | 0.901 | 0.206 | 0.232 | 0.227 | 0.226 | 0.207 | 0.832 | 0.797 | 0.837 | 0.867 | 0.973 |
| NCI-H647 | 1.17 | 1.27 | 1.25 | 1.01 | 0.416 | 1.16 | 1 | 1.05 | 0.331 | 0.444 | 0.174 | 0.104 | 0.104 | 0.114 | 0.0596 | 0.686 | 0.64 | 0.332 | 0.202 | 0.12 |
| SW 1573 | 0.97 | 1.09 | 0.865 | 0.848 | 1.01 | 0.779 | 1.07 | 0.801 | 0.78 | 0.616 | 1 | 0.759 | 0.832 | 0.526 | 0.824 | 0.476 | 0.562 | 0.44 | 0.401 | 0.457 |
| NCI-H1651 | 0.828 | 1 | 0.887 | 0.496 | 0.213 | 1.08 | 1 | 1.01 | 0.479 | 0.434 | 0.549 | 0.406 | 0.559 | 0.32 | 0.198 | 0.17 | 0.146 | 0.166 | 0.164 | 0.145 |
| NCI-H2023 | 0.785 | 0.604 | 0.688 | 0.201 | 0.178 | 0.494 | 0.497 | 0.48 | 0.3 | 0.193 | 0.175 | 0.124 | 0.115 | 0.118 | 0.112 | 0.473 | 0.336 | 0.253 | 0.253 | 0.139 |
| COR-L 105 | 0.83 | 0.995 | 0.994 | 0.782 | 1.46 | 0.962 | 1 | 0.978 | 0.734 | 0.572 | 0.939 | 0.921 | 1.08 | 0.92 | 0.82 | 0.467 | 0.512 | 0.752 | 0.64 | 0.519 |
| NCI-H1734 | 0.918 | 1.01 | 0.908 | 0.799 | 0.694 | 0.708 | 0.695 | 0.626 | 0.596 | 0.58 | 0.411 | 0.384 | 0.347 | 0.307 | 0.265 | 0.625 | 0.647 | 0.52 | 0.599 | 0.441 |
| NCI-H3122 | 0.977 | 1.02 | 0.92 | 0.992 | 0.977 | 0.79 | 0.856 | 0.806 | 0.717 | 0.869 | 0.196 | 0.169 | 0.158 | 0.147 | 0.164 | 0.647 | 0.674 | 0.598 | 0.635 | 0.563 |
| CAL-12T | 1.17 | 1.08 | 0.965 | 0.789 | 0.228 | 1.27 | 1.29 | 0.937 | 0.716 | 0.228 | 1.45 | 0.778 | 0.892 | 0.623 | 0.393 | 0.835 | 0.752 | 0.824 | 0.398 | 0.268 |
| HCC-78 |  | 0.666 | 0.561 | 0.535 | 0.576 | 0.365 | 0.334 | 0.372 | 0.354 | 0.289 | 0.912 | 0.842 | 0.869 | 0.869 | 0.743 | 0.826 | 0.874 | 0.947 | 0.878 | 0.465 |
| NCI-H2085 | 0.917 | 0.944 | 0.986 | 0.894 | 0.625 | 1.01 | 1.04 | 0.955 | 0.868 | 0.769 | 0.864 | 0.925 | 0.921 | 0.789 | 0.7 | 0.813 | 0.849 | 0.776 | 0.762 | 0.752 |
